# Results: patent US5068247A, “2-aminopentanoic acid compounds and their use as immunosuppressants” (priority 1989, dated 1991)
# Read-outs that look alike come from different tables or passages of the source.
# Legend:
# [1] = test system: allo-reactive cytotoxic T cells in spleen of EL4-immunized BALB/c mice; experiment: suppression of allo-reactive cytotoxic T cells induced by immunization of mouse with allogenic cells; type: in vivo
# Experimental: Male 5- to 7-week-old BALB/c mice (H-2^d) were immunized with leukemia cell EL4 derived from C57BL/6 mice (H-2^b) (10^7 cells/mouse, intraperitoneal administration), and the test substance was administered intraperitoneally 5 times at the doses of 0.001 to 3 mg/kg/day or orally at the doses of 0.3 to 10 mg/kg/day from the day of immunization. Nine to ten days after immunization, the spleen was resected from the mice to prepare a single cell suspension and the suspension was used as effector cell suspension. The ^51 Cr-release assay was carried out in the same way as in Experiment Example 3, using EL4 cells as the target cells to measure the cytotoxic activity.
# The activity of allo-reactive cytotoxic T cell is indicated by lytic unit (LU) per spleen. One lytic unit (LU) is defined as the number of effector cells required to cause 25% lysis of 5×10^3 target cells. At the same time, the body weight of mouse and number of spleen cells were also determined.
# [2] = test system: IL-2 production in mouse allogenic MLC; experiment: suppression of IL-2 production in mouse allogenic MLC; type: cell-based
# Experimental: Mouse allogenic MLC was carried out as follows:
# After termination of culture, the supernatant was collected and used as the supernatant of mouse allogenic MLC.
# The IL-2 and IL-3 activities in the supernatant of mouse allogenic MLC were assayed in the same way as in Experiment Example 4.
# [3] = test system: MOLT4; experiment: cytotoxicity to cultured tumor cell line MOLT4; type: cell-based, human
# Experimental: Cytotoxicity to various human tumor cell lines was examined as follows:
# Cells of human cell lines, K562, MOLT4, U937 and HL60 were respectively suspended to the concentration of 4×10^5 cells/ml in the RPMI1640 culture medium supplemented with 20% FCS. Fifty μl of each suspension was added to each well of a 96-well microtest plate to which 50 μl of the test solution had been added. After culturing the suspension at 37° C. in an atmosphere of 5% carbon dioxide for 72 hours, the absorbancy at 570 nm was measured in the same way as with the colorimetry using MTT in Experiment Example 1, and the percent suppression was calculated by the following formula, which was used as an index of cytotoxicity.
# [4] = cytotoxicity to cultured tumor cell line MOLT4; type: cell-based, human; conditions: human, molt4 cells, read-out: Suppression
# [5] = test system: allo-specific cytotoxic antibody in serum of EL4-immunized BALB/c mice; experiment: suppression of allo-specific cytotoxic antibody production induced by allogenic cell immunization of mouse; type: in vivo
# Experimental: Male 5- to 7-week-old BALB/c mice were immunized with leukemia cell EL4 derived from C57BL/6 mice (10^7 cells/mouse, intraperitoneal administration) in the same way as in Experiment Example 9, and the […] Nine to ten days after immunization, a serum was collected from the mice. Fifty μl of the two-fold serial dilution of the serum, 50 μl of a guinea pig complement and EL4 cell suspension labelled with ^51 Cr as the target cell (5×10^4 cells/ml, 100 μl) were together added to a 96-well microtest plate. After incubation at 37° C. for 1 hour, the amount of ^51 Cr released in the supernatant was measured, and the complement-dependent cytotoxicity was calculated by the following formula. [formula]
# The value of allo-specific cytotoxic antibody determined as above was expressed by the titer calculated on the basis of the concentration at which the releasing amount of ^51 Cr was 50% of that of ^51 Cr-labelled target cells treated with 0.1 N HCl.
# [6] = 0.01 mg/kg/day ip × 5, Table 9A
# [7] = 0.03 mg/kg/day ip × 5, Table 9A
# [8] = 0.01 mg/kg/day ip × 5, Table 10A
# [9] = 0.03 mg/kg/day ip × 5, Table 10A
# [10] = 0.1 mg/kg/day ip × 5, Table 10A
# [11] = 0.3 mg/kg/day ip × 5, Table 10A
# [12] = 0.3 mg/kg/day po × 5, Table 10B
smiles,measurement,setting,value
CCCCCCCCCCCCCCCC[C@@H](O)[C@H](O)[C@@](N)(CO)C(=O)O [Example 2],Body weight 9 days after immunization,[1]; [6],29.0 ± 1.7 g
same,Cytotoxic T cell activity,[1]; [6],724 ± 202 LU/spleen
same,"Cytotoxic T cell activity, suppression",[1]; [6],28.5%
same,Number of spleen cells,[1]; [6],3.2 ± 0.5 × 10^8 cell
same,Body weight 9 days after immunization,[1]; [7],28.5 ± 1.0 g
same,Cytotoxic T cell activity,[1]; [7],536 ± 272 LU/spleen
same,"Cytotoxic T cell activity, suppression",[1]; [7],47.0%
same,Number of spleen cells,[1]; [7],2.6 ± 0.6 × 10^8 cell
same,Body weight 9 days after immunization,"[1]; 0.1 mg/kg/day ip × 5, Table 9A",28.3 ± 1.4 g
same,Cytotoxic T cell activity,"[1]; 0.1 mg/kg/day ip × 5, Table 9A",527 ± 172 LU/spleen
same,"Cytotoxic T cell activity, suppression","[1]; 0.1 mg/kg/day ip × 5, Table 9A",47.9%
same,Number of spleen cells,"[1]; 0.1 mg/kg/day ip × 5, Table 9A",2.8 ± 0.5 × 10^8 cell
same,Body weight 9 days after immunization,"[1]; 0.3 mg/kg/day ip × 5, Table 9A",29.0 ± 1.8 g
same,Cytotoxic T cell activity,"[1]; 0.3 mg/kg/day ip × 5, Table 9A",525 ± 58 LU/spleen
same,"Cytotoxic T cell activity, suppression","[1]; 0.3 mg/kg/day ip × 5, Table 9A",48.1%
same,Number of spleen cells,"[1]; 0.3 mg/kg/day ip × 5, Table 9A",3.1 ± 0.5 × 10^8 cell
same,Body weight 9 days after immunization,"[1]; 0.3 mg/kg/day po × 5, Table 9B",28.0 ± 0.7 g
same,Cytotoxic T cell activity,"[1]; 0.3 mg/kg/day po × 5, Table 9B",323 ± 97 LU/spleen
same,"Cytotoxic T cell activity, suppression","[1]; 0.3 mg/kg/day po × 5, Table 9B",65.0%
same,Number of spleen cells,"[1]; 0.3 mg/kg/day po × 5, Table 9B",1.4 ± 0.2 × 10^8
same,Body weight 9 days after immunization,"[1]; 1 mg/kg/day ip × 5, Table 9A",27.3 ± 1.9 g
same,Cytotoxic T cell activity,"[1]; 1 mg/kg/day ip × 5, Table 9A",318 ± 128 LU/spleen
same,"Cytotoxic T cell activity, suppression","[1]; 1 mg/kg/day ip × 5, Table 9A",68.6%
same,Number of spleen cells,"[1]; 1 mg/kg/day ip × 5, Table 9A",3.2 ± 0.6 × 10^8 cell
same,Body weight 9 days after immunization,"[1]; 1 mg/kg/day po × 5, Table 9B",29.0 ± 1.7 g
same,Cytotoxic T cell activity,"[1]; 1 mg/kg/day po × 5, Table 9B",473 ± 92 LU/spleen
same,"Cytotoxic T cell activity, suppression","[1]; 1 mg/kg/day po × 5, Table 9B",48.7%
same,Number of spleen cells,"[1]; 1 mg/kg/day po × 5, Table 9B",1.4 ± 0.3 × 10^8
same,Body weight 9 days after immunization,"[1]; 3 mg/kg/day ip × 5, Table 9A",28.6 ± 1.7 g
same,Cytotoxic T cell activity,"[1]; 3 mg/kg/day ip × 5, Table 9A",< 50 LU/spleen
same,"Cytotoxic T cell activity, suppression","[1]; 3 mg/kg/day ip × 5, Table 9A",95.1%
same,Number of spleen cells,"[1]; 3 mg/kg/day ip × 5, Table 9A",2.7 ± 0.4 × 10^8 cell
same,Body weight 9 days after immunization,"[1]; 3 mg/kg/day po × 5, Table 9B",29.4 ± 1.5 g
same,Cytotoxic T cell activity,"[1]; 3 mg/kg/day po × 5, Table 9B",427 ± 100 LU/spleen
same,"Cytotoxic T cell activity, suppression","[1]; 3 mg/kg/day po × 5, Table 9B",53.7%
same,Number of spleen cells,"[1]; 3 mg/kg/day po × 5, Table 9B",2.0 ± 0.3 × 10^8
same,Body weight 9 days after immunization,"[1]; 10 mg/kg/day po × 5, Table 9B",27.4 ± 1.7 g
same,Cytotoxic T cell activity,"[1]; 10 mg/kg/day po × 5, Table 9B",274 ± 82 LU/spleen
same,"Cytotoxic T cell activity, suppression","[1]; 10 mg/kg/day po × 5, Table 9B",70.3%
same,Number of spleen cells,"[1]; 10 mg/kg/day po × 5, Table 9B",1.6 ± 0.3 × 10^8
same,induction of allo-reactive cytotoxic T cells (in words),[1]; 5 times intraperitoneal or oral,strongly suppresses the induction of allo-reactive cytotoxic T cells
same,IL-2 activity,[2]; 0.0001 μg/ml,3.9 U/ml
same,IL-2 activity,[2]; 0.001 μg/ml,3.1 U/ml
same,IL-2 activity,[2]; 0.01 μg/ml,3.6 U/ml
same,IL-2 activity,[2]; 0.1 μg/ml,1 U/ml
same,IL-2 activity,[2]; 1 μg/ml,1.6 U/ml
same,inhibition at 0.0001 µg/mL,"[2]; Mus musculus, 48 h, 0.0001 μg/ml",13.3%
same,inhibition at 0.001 µg/mL,"[2]; Mus musculus, 48 h, 0.001 μg/ml",31.1%
same,inhibition at 0.01 µg/mL,"[2]; Mus musculus, 48 h, 0.01 μg/ml",17.8%
same,inhibition at 0.1 µg/mL,"[2]; Mus musculus, 48 h, 0.1 μg/ml",68.9%
same,inhibition at 1 µg/mL,"[2]; Mus musculus, 48 h, 1 μg/ml",64.4%
same,Absorbancy,[3]; 0.1 μg/ml,1.144 ± 0.040
same,Absorbancy,[3]; 1 μg/ml,1.027 ± 0.009
same,Absorbancy,[3]; 10 μg/ml,1.045 ± 0.041
same,cytotoxicity at 72 h,[4]; 0.1 μg/ml,0.9%
same,cytotoxicity at 72 h,[4]; 1 μg/ml,11%
same,cytotoxicity at 72 h,[4]; 10 μg/ml,9.4%
same,"Allogenic cell-specific antibody in serum, suppression",[5]; [8],0%
same,"Allogenic cell-specific antibody in serum, titer",[5]; [8],119 ± 47
same,"Allogenic cell-specific antibody in serum, suppression",[5]; [9],0%
same,"Allogenic cell-specific antibody in serum, titer",[5]; [9],87 ± 55
same,"Allogenic cell-specific antibody in serum, suppression",[5]; [10],0%
same,"Allogenic cell-specific antibody in serum, titer",[5]; [10],89 ± 32
same,"Allogenic cell-specific antibody in serum, suppression",[5]; [11],39.9%
same,"Allogenic cell-specific antibody in serum, titer",[5]; [11],50 ± 48
same,"Allogenic cell-specific antibody in serum, suppression",[5]; [12],39.3%
same,"Allogenic cell-specific antibody in serum, titer",[5]; [12],130 ± 45
same,"Allogenic cell-specific antibody in serum, suppression","[5]; 1 mg/kg/day ip × 5, Table 10A",> 80%
same,"Allogenic cell-specific antibody in serum, titer","[5]; 1 mg/kg/day ip × 5, Table 10A",< 16
same,"Allogenic cell-specific antibody in serum, suppression","[5]; 1 mg/kg/day po × 5, Table 10B",37.9%
same,"Allogenic cell-specific antibody in serum, titer","[5]; 1 mg/kg/day po × 5, Table 10B",133 ± 50
same,"Allogenic cell-specific antibody in serum, suppression","[5]; 3 mg/kg/day ip × 5, Table 10A",> 80%
same,"Allogenic cell-specific antibody in serum, titer","[5]; 3 mg/kg/day ip × 5, Table 10A",< 16
same,"Allogenic cell-specific antibody in serum, suppression","[5]; 3 mg/kg/day po × 5, Table 10B",58.9%
same,"Allogenic cell-specific antibody in serum, titer","[5]; 3 mg/kg/day po × 5, Table 10B",88 ± 47
same,"Allogenic cell-specific antibody in serum, suppression","[5]; 10 mg/kg/day po × 5, Table 10B",68.7%
same,"Allogenic cell-specific antibody in serum, titer","[5]; 10 mg/kg/day po × 5, Table 10B",67 ± 16
same,allo-specific cytotoxic antibody production in serum (in words),"[5]; intraperitoneal or oral, Tables 10A to 10D",strongly suppresses allo-specific cytotoxic antibody production in serum
